{"source": "patent US6737383B1", "about": "“Herbicidal oxadiazolidines” (priority 1999, dated 2004)", "key": {"surinam grass": {"system": "surinam grass", "assay": "Test B pre/postemergence surinam grass", "type": "in vivo, Brachiaria decumbens", "method_in_brief": "(§1)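 Herbicidal effect was estimated by eye on a ten-point control scale after plants spent twelve to sixteen days in a greenhouse following soil or foliar treatment. Foliar sprays targeted plants at one to four leaves; all doses were formulated in a non-phytotoxic solvent with surfactant.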"}, "cocklebur": {"system": "cocklebur", "assay": "Test B pre/postemergence cocklebur", "type": "in vivo, Xanthium strumarium", "method_in_brief": "as §1"}, "corn": {"system": "corn", "assay": "Test B pre/postemergence corn", "type": "in vivo, Zea mays", "method_in_brief": "as §1"}, "crabgrass": {"system": "crabgrass", "assay": "Test B pre/postemergence crabgrass", "type": "in vivo, Digitaria sanguinalis", "method_in_brief": "as §1"}, "giant foxtail": {"system": "giant foxtail", "assay": "Test B pre/postemergence giant foxtail", "type": "in vivo, Setaria faberii", "method_in_brief": "as §1"}, "morningglory": {"system": "morningglory", "assay": "Test B pre/postemergence morningglory", "type": "in vivo, Ipomoea hederacea", "method_in_brief": "as §1"}, "pigweed": {"system": "pigweed", "assay": "Test B pre/postemergence pigweed", "type": "in vivo, Amaranthus retroflexus", "method_in_brief": "as §1"}, "rape": {"system": "rape", "assay": "Test B pre/postemergence rape", "type": "in vivo, Brassica napus", "method_in_brief": "as §1"}, "sugar beet": {"system": "sugar beet", "assay": "Test B pre/postemergence sugar beet", "type": "in vivo, Beta vulgaris", "method_in_brief": "as §1"}, "wheat": {"system": "wheat", "assay": "Test B pre/postemergence wheat", "type": "in vivo, Triticum aestivum", "method_in_brief": "as §1"}, "wild oat": {"system": "wild oat", "assay": "Test B pre/postemergence wild oat", "type": "in vivo, Avena fatua", "method_in_brief": "as §1"}, "purple nutsedge": {"system": "purple nutsedge", "assay": "Test B pre/postemergence purple nutsedge", "type": "in vivo, Cyperus rotundus", "method_in_brief": "as §1"}, "rice": {"system": "rice", "assay": "Test B flood test rice", "type": "in vivo, Oryza sativa", "conditions": "for Rice plant response rating: Postemergence section (flood test species)", "method_in_brief": "(§2)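 Read-out is a visual response score from 0 (no effect) to 10 (complete control), assigned by comparison with untreated controls. Treatment was applied at the 2-leaf stage, and plants stayed in the greenhouse for twelve to sixteen days before scoring.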"}, "smallflower flatsedge": {"system": "smallflower flatsedge", "assay": "Test B flood test smallflower flatsedge", "type": "in vivo, Cyperus difformis", "conditions": "for S. Flatsedge plant response rating: Postemergence section (flood test species)", "method_in_brief": "as §2"}, "duck salad": {"system": "duck salad", "assay": "Test B flood test duck salad", "type": "in vivo, Heteranthera limosa", "method_in_brief": "as §2"}, "bamyardgrass": {"system": "bamyardgrass", "assay": "Test B flood test barnyardgrass", "type": "in vivo, Echinochloa crus-galli", "method_in_brief": "as §2"}, "[1]": {"conditions": "Postemergence, Rate 250 g/ha, scale 0 to 10, 0 is no effect, 10 is complete control"}, "[2]": {"conditions": "Postemergence, Rate 500 g/ha, scale of 0 to 10 where 0 is no effect and 10 is complete control"}, "[3]": {"conditions": "Preemergence, Rate 62 g/ha, scale 0 to 10 (0 no effect, 10 complete control)"}, "[4]": {"conditions": "Preemergence, Rate 125 g/ha, scale of 0 to 10 where 0 is no effect and 10 is complete control"}, "[5]": {"conditions": "Rate 62 g/ha, Postemergence, scale of 0 to 10 where 0 is no effect and 10 is complete control"}, "[6]": {"conditions": "Rate 125 g/ha, Postemergence, scale 0 to 10, 0 is no effect, 10 is complete control"}, "[7]": {"conditions": "Preemergence, Rate 250 g/ha, scale 0 to 10, 0 is no effect, 10 is complete control"}, "[8]": {"conditions": "Preemergence, Rate 500 g/ha, scale 0 to 10, 0 is no effect, 10 is complete control"}, "[9]": {"conditions": "Rate 500 g/ha, scale of 0 to 10 where 0 is no effect and 10 is complete control"}, "[10]": {"conditions": "Rate 125 g/ha, scale 0 to 10, 0 is no effect, 10 is complete control"}, "[11]": {"conditions": "flood test species, listed under Postemergence, Rate 250 g/ha, scale 0 to 10, 0 is no effect, 10 is complete control"}, "[12]": {"conditions": "Postemergence section (flood test species), Rate 500 g/ha, scale of 0 to 10 where 0 is no effect and 10 is complete control"}, "[13]": {"conditions": "Rate 62 g/ha, Postemergence (flood test species), scale of 0 to 10 where 0 is no effect and 10 is complete control"}, "[14]": {"conditions": "Rate 125 g/ha, Postemergence section (flood test species), scale 0 to 10, 0 is no effect, 10 is complete control"}}}
{"compound": "CC(C)N(C(=O)n1oc(=O)n(CCl)c1=O)c1ccccc1", "note": "[Compound 423]", "values": [{"measurement": "Plant response rating, B. signalgrass", "setting": "surinam grass; [1]", "result": 0}, {"measurement": "B. signalgrass plant response rating", "setting": "surinam grass; [2]", "result": 0}, {"measurement": "Plant response rating, B. signalgrass", "setting": "surinam grass; [3]", "result": 0}, {"measurement": "Plant response rating, B. signalgrass", "setting": "surinam grass; [4]", "result": 0}, {"measurement": "B. signalgrass plant response rating", "setting": "surinam grass; Preemergence, Rate 250 g/ha, scale of 0 to 10 where 0 is no effect and 10 is complete control", "result": 0}, {"measurement": "B. signalgrass plant response rating", "setting": "surinam grass; Preemergence, Rate 500 g/ha, scale of 0 to 10 where 0 is no effect and 10 is complete control", "result": 0}, {"measurement": "B. signalgrass plant response rating", "setting": "surinam grass; [5]", "result": 0}, {"measurement": "B. signalgrass plant response rating", "setting": "surinam grass; [6]", "result": 0}, {"measurement": "Plant response rating, Cocklebur", "setting": "cocklebur; [1]", "result": 0}, {"measurement": "Cocklebur plant response rating", "setting": "cocklebur; [2]", "result": 0}, {"measurement": "Plant response rating, Cocklebur", "setting": "cocklebur; [3]", "result": 0}, {"measurement": "Plant response rating, Cocklebur", "setting": "cocklebur; [4]", "result": 0}, {"measurement": "Cocklebur plant response rating", "setting": "cocklebur; [7]", "result": 0}, {"measurement": "Cocklebur plant response rating", "setting": "cocklebur; [8]", "result": 0}, {"measurement": "Cocklebur plant response rating", "setting": "cocklebur; [5]", "result": 0}, {"measurement": "Cocklebur plant response rating", "setting": "cocklebur; [6]", "result": 0}, {"measurement": "Plant response rating, Corn", "setting": "corn; [1]", "result": 0}, {"measurement": "Corn plant response rating", "setting": "corn; [2]", "result": 0}, {"measurement": "Plant response rating, Corn", "setting": "corn; [3]", "result": 0}, {"measurement": "Plant response rating, Corn", "setting": "corn; [4]", "result": 0}, {"measurement": "Corn plant response rating", "setting": "corn; [7]", "result": 0}, {"measurement": "Corn plant response rating", "setting": "corn; [8]", "result": 0}, {"measurement": "Corn plant response rating", "setting": "corn; [5]", "result": 0}, {"measurement": "Corn plant response rating", "setting": "corn; [6]", "result": 0}, {"measurement": "Plant response rating, Crabgrass", "setting": "crabgrass; [1]", "result": 0}, {"measurement": "Crabgrass plant response rating", "setting": "crabgrass; [2]", "result": 1}, {"measurement": "Plant response rating, Crabgrass", "setting": "crabgrass; [3]", "result": 0}, {"measurement": "Plant response rating, Crabgrass", "setting": "crabgrass; [4]", "result": 0}, {"measurement": "Crabgrass plant response rating", "setting": "crabgrass; [8]", "result": 2}, {"measurement": "Crabgrass plant response rating", "setting": "crabgrass; [5]", "result": 0}, {"measurement": "Crabgrass plant response rating", "setting": "crabgrass; [6]", "result": 0}, {"measurement": "Plant response rating, Giant foxtail", "setting": "giant foxtail; [1]", "result": 0}, {"measurement": "Giant foxtail plant response rating", "setting": "giant foxtail; [2]", "result": 2}, {"measurement": "Plant response rating, Giant foxtail", "setting": "giant foxtail; [3]", "result": 0}, {"measurement": "Plant response rating, Giant foxtail", "setting": "giant foxtail; [4]", "result": 0}, {"measurement": "Giant foxtail plant response rating", "setting": "giant foxtail; [7]", "result": 3}, {"measurement": "Giant foxtail plant response rating", "setting": "giant foxtail; [8]", "result": 4}, {"measurement": "Giant foxtail plant response rating", "setting": "giant foxtail; [5]", "result": 0}, {"measurement": "Giant foxtail plant response rating", "setting": "giant foxtail; [6]", "result": 0}, {"measurement": "Morningglory plant response rating", "setting": "morningglory; [2]", "result": 8}, {"measurement": "Plant response rating, Morningglory", "setting": "morningglory; [3]", "result": 0}, {"measurement": "Plant response rating, Morningglory", "setting": "morningglory; [4]", "result": 0}, {"measurement": "Morningglory plant response rating", "setting": "morningglory; [7]", "result": 0}, {"measurement": "Morningglory plant response rating", "setting": "morningglory; [8]", "result": 0}, {"measurement": "Morningglory plant response rating", "setting": "morningglory; [6]", "result": 2}, {"measurement": "Plant response rating, Redroot pigweed", "setting": "pigweed; [1]", "result": 0}, {"measurement": "Redroot pigweed plant response rating", "setting": "pigweed; [2]", "result": 0}, {"measurement": "Plant response rating, Redroot pigweed", "setting": "pigweed; [3]", "result": 0}, {"measurement": "Plant response rating, Redroot pigweed", "setting": "pigweed; [4]", "result": 0}, {"measurement": "Redroot pigweed plant response rating", "setting": "pigweed; [7]", "result": 0}, {"measurement": "Redroot pigweed plant response rating", "setting": "pigweed; [8]", "result": 0}, {"measurement": "Redroot pigweed plant response rating", "setting": "pigweed; [6]", "result": 0}, {"measurement": "Plant response rating, Rape", "setting": "rape; [1]", "result": 0}, {"measurement": "Rape plant response rating", "setting": "rape; [2]", "result": 0}, {"measurement": "Plant response rating, Rape", "setting": "rape; [3]", "result": 0}, {"measurement": "Plant response rating, Rape", "setting": "rape; [4]", "result": 0}, {"measurement": "Rape plant response rating", "setting": "rape; [7]", "result": 0}, {"measurement": "Rape plant response rating", "setting": "rape; [8]", "result": 0}, {"measurement": "Rape plant response rating", "setting": "rape; [6]", "result": 0}, {"measurement": "Plant response rating, Sugarbeets", "setting": "sugar beet; [1]", "result": 0}, {"measurement": "Sugarbeets plant response rating", "setting": "sugar beet; [2]", "result": 0}, {"measurement": "Plant response rating, Sugarbeets", "setting": "sugar beet; [3]", "result": 0}, {"measurement": "Plant response rating, Sugarbeets", "setting": "sugar beet; [4]", "result": 0}, {"measurement": "Sugarbeets plant response rating", "setting": "sugar beet; [7]", "result": 0}, {"measurement": "Sugarbeets plant response rating", "setting": "sugar beet; [8]", "result": 0}, {"measurement": "Sugarbeets plant response rating", "setting": "sugar beet; [6]", "result": 0}, {"measurement": "Wheat plant response rating", "setting": "wheat; [2]", "result": 0}, {"measurement": "Plant response rating, Wheat", "setting": "wheat; [3]", "result": 0}, {"measurement": "Plant response rating, Wheat", "setting": "wheat; [4]", "result": 0}, {"measurement": "Wheat plant response rating", "setting": "wheat; [7]", "result": 0}, {"measurement": "Wheat plant response rating", "setting": "wheat; [8]", "result": 0}, {"measurement": "Wheat plant response rating", "setting": "wheat; [6]", "result": 0}, {"measurement": "Wild oats plant response rating", "setting": "wild oat; [2]", "result": 0}, {"measurement": "Plant response rating, Wild oats", "setting": "wild oat; [3]", "result": 0}, {"measurement": "Plant response rating, Wild oats", "setting": "wild oat; [4]", "result": 0}, {"measurement": "Wild oats plant response rating", "setting": "wild oat; [7]", "result": 0}, {"measurement": "Wild oats plant response rating", "setting": "wild oat; [8]", "result": 0}, {"measurement": "Wild oats plant response rating", "setting": "wild oat; [6]", "result": 0}, {"measurement": "Plant response rating, Nutsedge", "setting": "purple nutsedge; [1]", "result": 0}, {"measurement": "Nutsedge plant response rating", "setting": "purple nutsedge; [2]", "result": 0}, {"measurement": "Plant response rating, Nutsedge", "setting": "purple nutsedge; [3]", "result": 0}, {"measurement": "Plant response rating, Nutsedge", "setting": "purple nutsedge; [4]", "result": 0}, {"measurement": "Nutsedge plant response rating", "setting": "purple nutsedge; [7]", "result": 0}, {"measurement": "Nutsedge plant response rating", "setting": "purple nutsedge; [8]", "result": 0}, {"measurement": "Nutsedge plant response rating", "setting": "purple nutsedge; [6]", "result": 0}, {"measurement": "Rice plant response rating", "setting": "rice; [9]", "result": 0}, {"measurement": "Rice plant response rating", "setting": "rice; [10]", "result": 0}, {"measurement": "Plant response rating, Rice", "setting": "rice; [11]", "result": 0}, {"measurement": "S. Flatsedge plant response rating", "setting": "smallflower flatsedge; [9]", "result": 0}, {"measurement": "S. Flatsedge plant response rating", "setting": "smallflower flatsedge; [10]", "result": 0}, {"measurement": "Plant response rating, S. Flatsedge", "setting": "smallflower flatsedge; [11]", "result": 0}, {"measurement": "Ducksalad plant response rating", "setting": "duck salad; [12]", "result": 0}, {"measurement": "Ducksalad plant response rating", "setting": "duck salad; [13]", "result": 0}, {"measurement": "Ducksalad plant response rating", "setting": "duck salad; [14]", "result": 0}, {"measurement": "Plant response rating, Ducksalad", "setting": "duck salad; [11]", "result": 0}, {"measurement": "Barnyardgrass plant response rating", "setting": "bamyardgrass; [12]", "result": 0}, {"measurement": "Barnyardgrass plant response rating", "setting": "bamyardgrass; [13]", "result": 0}, {"measurement": "Barnyardgrass plant response rating", "setting": "bamyardgrass; [14]", "result": 0}, {"measurement": "Plant response rating, Barnyardgrass", "setting": "bamyardgrass; [11]", "result": 0}]}
